Peptide text beside a SMILES is read from it.
What was measured:
pepsin = details: in all liposomal formulations; SGF with pepsin 3.2 mg/mL, 2 h, 37 ± 0.5°C, HPLC
Description: The dissolution experiment was performed according to Liu et al. ([2012]) with some modifications. Different samples were placed in a simulated gastric fluid for 2 h (SGF: 0.2 g of NaCl dissolved in 0.7 mL of HCl and filled up to 100 ml with distilled water then pepsin was added at a concentration of 3.2 mg/mL). Then, the dissolution was performed in simulated intestinal fluid (SIF: 6.8 g of potassium phosphate monobasic sodium hydroxide with a pH adjusted to 7.4 with 2N sodium hydroxide to a volume of 100 mL and a concentration of 0.2 mg/mL bovine bile extract), the pH was adjusted to 7.4. Pancreatin was added at a concentration of 20 mg/mL (equivalent to a protease activity of 500 U/mL). The dissolution was performed for 4 h at a temperature of 37 ± 0.5°C with stirring at 140 rpm. To perform the experiment 3 ml of the individual suspensions of liposomes was added to 3 mL of gastric fluid and samples of 500 μL of medium are removed at intervals of 1 h for the gastric fluid portion and at 0, 15, 30, 60, 120, 240 min during the intestinal dissolution. The contents MccJ25 samples were determined by HPLC. […] The blank was performed in similar conditions with a solution of non-encapsulated MccJ25.

S. enteritidis = assay: Microtitration assay (critical dilution), activity in AU; type: cell-based, Salmonella enteritidis
Description: The second activity test was carried out using the same strain (S. enteritidis) in polystyrene 96-well micro-assay plates (Microtest, Becton–Dickinson Labware, MD, USA) as described by Ennaas et al. ([2016]). Briefly, fractions were added to microplates and diluted 2-folds with LB broth. Then, wells were seeded with ~1 × 10^4 CFU of strain per well using log-phase culture diluted in LB to 0.5–1.0 × 10^6 CFU ml^−1. The plates were incubated for 18 h at 37°C. After incubation, OD at 595 nm was measured using an Infinite® F200 PRO photometer (Tecan US Inc., Durham, NC). Antimicrobial activity results were expressed as arbitrary units per milliliter (AU ml^−1) that calculated as follows:
AU ml^−1 = (1,000/100) × 2 n, where n = number of inhibited wells.

CC[C@H](C)[C@H](NC(=O)CNC(=O)[C@@H](NC(=O)[C@H](Cc1ccccc1)NC(=O)[C@H](Cc1ccc(O)cc1)NC(=O)[C@@H]1CCC(=O)NCC(=O)NCC(=O)N[C@@H](C)C(=O)NCC(=O)N[C@@H](Cc2cnc[nH]2)C(=O)N[C@@H](C(C)C)C(=O)N2CCC[C@H]2C(=O)N1)C(C)C)C(=O)NCC(=O)N[C@H](C(=O)N1CCC[C@H]1C(=O)N[C@H](C(=O)N[C@@H](CO)C(=O)N[C@@H](Cc1ccccc1)C(=O)N[C@@H](Cc1ccc(O)cc1)C(=O)NCC(=O)O)[C@@H](C)CC)[C@@H](C)O [MccJ25, microcin J25] (HELM PEPTIDE1{G.G.A.G.H.V.P.E.Y.F.V.G.I.G.T.P.I.S.F.Y.G}$PEPTIDE1,PEPTIDE1,1:R1-8:R3$$$V2.0)
Resistance of MccJ25 to gastric digestion (pepsin): resisted gastric digestion

CC[C@H](C)[C@H](NC(=O)CNC(=O)[C@@H](NC(=O)[C@H](Cc1ccccc1)NC(=O)[C@H](Cc1ccc(O)cc1)NC(=O)[C@@H]1CCC(=O)NCC(=O)NCC(=O)N[C@@H](C)C(=O)NCC(=O)N[C@@H](Cc2c[nH]cn2)C(=O)N[C@@H](C(C)C)C(=O)N2CCC[C@H]2C(=O)N1)C(C)C)C(=O)NCC(=O)N[C@H](C(=O)N1CCC[C@H]1C(=O)N[C@H](C(=O)N[C@@H](CO)C(=O)N[C@@H](Cc1ccccc1)C(=O)N[C@@H](Cc1ccc(O)cc1)C(=O)NCC(=O)O)[C@@H](C)CC)[C@@H](C)O [MccJ25, microcin J25] (HELM PEPTIDE1{G.G.A.G.H.V.P.E.Y.F.V.G.I.G.T.P.I.S.F.Y.G}$PEPTIDE1,PEPTIDE1,1:R1-8:R3$$$V2.0; C-terminus assumed; bridges inferred)
Specific activity (AU/mg) (S. enteritidis; activity per mg protein (Lowry method)): 181,352 AU/mg
Inhibitory activity (AU/ml) (S. enteritidis; microtitration assay, S. enteritidis, 2-fold dilutions in LB, 18 h at 37°C, OD 595 nm): 524,288 AU/ml

From PMC5698301, “Dual Coating of Liposomes as Encapsulating Matrix of Antimicrobial Peptides: Development and Characterization” (Frontiers in Chemistry, 2017)
